The record followed here is patent US8263597B2, “Indazole compounds as CCR1 receptor antagonists” (Boehringer Ingelheim International GmbH, priority 2008, dated 2012).

A word on the pIC50: it is the negative decadic logarithm of the IC50, by convention in mol/L.

In this experiment the target is T1, CCR1 (Homo sapiens, UniProt P32246).
T1 sequence (P32246 1-355): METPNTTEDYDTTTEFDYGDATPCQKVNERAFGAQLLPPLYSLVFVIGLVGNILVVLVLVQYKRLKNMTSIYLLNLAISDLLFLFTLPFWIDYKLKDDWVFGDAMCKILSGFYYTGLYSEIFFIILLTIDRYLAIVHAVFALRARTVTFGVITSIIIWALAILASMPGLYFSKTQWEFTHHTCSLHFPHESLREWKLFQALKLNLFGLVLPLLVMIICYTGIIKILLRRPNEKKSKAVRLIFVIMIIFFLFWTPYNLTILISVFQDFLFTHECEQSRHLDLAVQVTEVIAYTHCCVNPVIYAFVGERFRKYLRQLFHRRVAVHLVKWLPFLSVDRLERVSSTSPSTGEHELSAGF
Nature of the experiment: Calcium flux in response to MIP-1 alpha in CCR1-transfected cells, Method B (Calcium 4 dye, […] FDSS6000). The note with it: cells stably expressing recombinant CCR1 and G-alpha-16; MIP-1 alpha at EC80; 30 minutes at 37 C then 30 minutes at room temperature. It counts as cell-based. The procedure:
Compounds are assessed for the ability to block the interaction of CCR1 and its ligand in a functional cellular assay measuring calcium flux in response to MIP-1α in CCR1-transfected cells.
Method B: Non-adherent cells purchased from Chemicon Corporation (HTS005C), stably expressing recombinant CCR1 and G-alpha-16 are grown in RPMI 1640 medium (Mediatech 10-080-CM) supplemented with 10% FBS, 0.4 mg/mL Geneticin and penicillin/streptomycin. On the day of the assay, the cells are loaded with Calcium 4 dye (Molecular Devices R7448) with Probenecid (Invitrogen P346400) at 8E5 cells/mL for 1 hour at room temperature. After 1 hour, they are seeded in a 384-well tissue culture-treated plate at a density of 20,000 cells/well. Appropriately diluted test compound is added to the well to achieve a top concentration of 3,000 nM (diluted 4-fold with 10 doses total). The final concentration of DMSO is 1%. The buffer is HBSS (Invitrogen 14025) with 20 mM HEPES at pH 7.4. The cells incubate 30 minutes at 37 C and then 30 minutes at room temperature. The plates are transferred to the […] FDSS6000 where MIP-1 alpha in 1% BSA is added at the EC80 final concentration. All plates must be read within 4 hours of the start of dye-loading. Wells +/−MIP-1alpha containing diluted DMSO instead of compound serve as the controls. Data are analyzed using Activity Base software.
In general terms: Calcium assays in cells follow changes in intracellular calcium, usually with a dye or a luminescent sensor.

SMILES strings stand for the structures. pIC50: −log10 of the molar value.

Turning to `CC[C@H](NC(=O)c1cc(Br)cc2c1cnn2-c1ccc(F)cc1)c1ccc(S(C)(=O)=O)nc1` [6-Bromo-1-(4-fluoro-phenyl)-1H-indazole-4-carboxylic acid [(S)-1-(6-methanesulfonyl-pyridin-3-yl)-propyl]-amide], the negative logarithm of the IC50 (pIC50) is 7.64.
